Results as given in US12410124B2 (priority 2019, dated 2025).
Where two headings read alike, the source gives them in different places.

Key:
midbrain pp38 = assay: Midbrain pp38 protein expression in MPTP Parkinson's disease model mouse (western-blotting); assay type: in vivo; conditions: midbrain total protein, GAPDH internal reference, gavage 21 days after MPTP modeling
Protocol: (§1) Neurotoxins can be used to establish PD animal models. Currently, 1-methyl-4-phenyl-1,2,3,6-tetrahydropyridine (MPTP) is the sole synthetic toxin which is recognized to induce PD symptoms in human and non-human primates and in mice. Using MPTP subacute modeling method, C57BL/6J male mice were intraperitoneally injected with MPTP 30 mg/kg, once a day for 5 consecutive days. The experiment animals were divided into blank control group, MPTP model group, and compound treatment group. For the […] compound treatment group, the compound was administrated by gavage for 21 consecutive days after the completion of modeling; for the MPTP model group, the normal saline was administrated by gavage for 21 consecutive days after the completion of modeling; and for the blank control group, the normal saline was first intraperitoneally injected for 5 days, and then administrated by gavage for 21 days.
The p38 mitogen-activated protein kinase (p38 MAPK) is expressed in both neurons and glial cells, and is the intersection point of neuron-glial cell network information regulations. The activation of p38 signaling pathway is an important initiator of neuronal degeneration, which continuously induces the apoptosis of dopaminergic neurons in multiple ways. It has become a research hotspot for the treatment of PD. Studies have shown that the protective mechanism of CAPE against the death of primary cultured cerebellar granule neurons induced by glutamate lies in inhibiting the activation of p38 phosphorylation and in turn inhibiting the activation of the caspase 3 apoptotic pathway to prevent neuronal apoptosis. Therefore, the MPTP-induced PD mouse model can be used to investigate the inhibitory effect of the target compounds on the activation of p38 phosphorylation on the overall animal level.
(§2) Half of experiment mice in each group were taken to extract the total midbrain protein, and the change in the midbrain phosphorylated p38 protein expression was determined by western-blotting using GAPDH as the internal reference. The experiment included blank control group, MPTP model group, positive control group (caffeic acid phenethyl ester, CAPE), prototype control group (styryl sulfone compounds 3B, 3C, 3D, and 3G, whose structures are shown as above), and target compound group.

[1] = target: acetylcholinesterase (AchE) (Homo sapiens, UniProt P22303); assay: biochemical
Chain of acetylcholinesterase (AchE) (P22303 32-614, species assumed): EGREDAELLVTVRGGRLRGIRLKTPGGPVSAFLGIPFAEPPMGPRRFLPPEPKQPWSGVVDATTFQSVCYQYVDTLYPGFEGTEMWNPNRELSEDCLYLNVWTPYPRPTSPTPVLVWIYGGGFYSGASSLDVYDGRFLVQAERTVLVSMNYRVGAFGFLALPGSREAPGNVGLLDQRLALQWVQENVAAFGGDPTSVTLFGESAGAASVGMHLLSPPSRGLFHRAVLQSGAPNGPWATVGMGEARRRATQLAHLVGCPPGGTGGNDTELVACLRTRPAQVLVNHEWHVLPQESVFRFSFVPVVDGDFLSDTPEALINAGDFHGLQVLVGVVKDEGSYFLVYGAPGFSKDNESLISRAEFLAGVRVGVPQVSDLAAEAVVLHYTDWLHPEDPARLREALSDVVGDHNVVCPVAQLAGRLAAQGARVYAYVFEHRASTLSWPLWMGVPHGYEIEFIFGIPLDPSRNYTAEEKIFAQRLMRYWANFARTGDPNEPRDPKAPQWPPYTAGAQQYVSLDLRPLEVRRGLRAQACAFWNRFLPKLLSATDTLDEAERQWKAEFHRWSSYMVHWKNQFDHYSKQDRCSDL
Protocol: The modified Ellman method was used to determine the inhibitory activity on acetylcholinesterase. The principle lies in that acetylthiocholine iodide is decomposed under the action of acetylcholinesterase (AchE) to generate thiocholine. The thiocholine is quickly reacted with DTNB as the colour-developing agent to generate a yellow substance with light absorption at 405 nm. To a 96-well microplate, 50 μl of enzyme reaction buffer, 125 μl of DTNB (3 mM), 25 μl of test sample or positive control drug, and 25 μl of AchE (0.2 U/ml) were successively added. After incubation at room temperature for 5 min, 25 μl of ATCI (15 mM) was added. After incubation at room temperature for 8 min, the absorbance value was determined at 405 nm with a microplate reader. A blank control group without enzyme (25 μl PBS instead of the sample to be tested) was also established.

midbrain p-α-s = assay: Midbrain p-α-s protein expression in MPTP Parkinson's disease model mouse (western-blotting); assay type: in vivo; conditions: midbrain total protein, GAPDH internal reference, gavage 21 consecutive days after MPTP modeling
Protocol: as §1
Alpha-synuclein is an “unfolded protein” in its natural state. It exists in a monomeric form, and participates in the physiological functions such as the release of neurotransmitters, the establishment of synaptic junctions, and the regulation of synaptic plasticity. Under pathological conditions, more than 90% of alpha-synuclein is phosphorylated at serine of position 129 and converted into phosphorylated alpha-synuclein (p-α-s), thereby forming Lewy bodies. The formation of Lewy bodies is one of the main pathological manifestations and pathological mechanisms for Parkinson's disease, and plays an important role in the formation and development of PD. The detection of the p-α-s expression in the midbrain and substantia nigra of PD model mice can evaluate the neuroprotective activity of the compound.
as §2, with “P-α-s” for “phosphorylated p38”

GCLC = assay: Midbrain GCLC expression in MPTP Parkinson's disease model mouse (western blot); assay type: in vivo; conditions: for Expression (GCLC/GAPDH): midbrain, MPTP Parkinson's disease model mouse, western blot
Protocol: as §1
Oxidative stress is an important pathogenic mechanism of PD. Dopaminergic neurons are more sensitive to oxidative stress and are more susceptible to oxidative stress damage. Glutathione (GSH) is an important antioxidant substance in the cell, and glutamate cysteine ligase (GCL) is the rate-limiting enzyme for GSH synthesis, which is composed of catalytic subunit (GCLC) and regulatory subunit (GCLM). The increase of GCLC expression can promote the synthesis of GSH and enhance the ability of tissue cells against oxidative stress. GCL, a phase II enzyme, plays an important protective role by catalyzing the conversion of free radicals into non-toxic products and increasing their water solubility to facilitate the elimination of free radicals, and maintain the redox balance in the body. It plays an important role in the process of protecting cells against oxidative stress damage. The activation of p38 protein phosphorylation has a negative regulatory effect on phase II enzymes. […] Using GCLC as an indicator, the inhibitory effect of the target compounds on MPTP-induced oxidative stress damage in PD mice can be investigated.
GCLC is expressed in astrocytes, microglial cells, and neurons. The total proteins of the midbrain tissue of mice in each experiment group were extracted, to determine the expression of phase II enzyme GCLC in the midbrain of mice by western blot using GAPDH as the internal reference. The experiment included blank control group, MPTP model group, positive control group (caffeic acid phenethyl ester, CAPE), prototype control group (styryl sulfone compounds 3B, 3C, 3D), and 3G, whose structures are shown as above), and target compound group.

[2] = acetylcholinesterase, modified Ellman method, read-out: IC50

SMILES: O=C(NC(=O)C(F)(F)F)Oc1ccc(/C=C/S(=O)(=O)C(F)(F)c2ccc(Oc3ccccn3)cc2)cc1OC(=O)C(F)(F)C(F)(F)F [Compound L1-4, (E)-5-{2-[(4-[pyridin-2-yl-oxy]phenyl)difluoromethylsulfonyl]ethenyl}-2-[N-(2,2,2-trifluoroacetyl)carbamoyloxy]phenyl-2,2,3,3,3-pentafluoropropionate]
- Expression (pp38/GAPDH) (midbrain pp38): 0.28 ± 0.04
- IC50 [1, 2]: 9.48 ± 1.34 µM
- Expression (p-α-s/GAPDH) (midbrain p-α-s): 0.38 ± 0.08
- Expression (GCLC/GAPDH) (GCLC): 0.96 ± 0.10

SMILES: COCCN(C)C(=O)Oc1cc(/C=C/S(=O)(=O)CCc2cccc(-c3ccc(C)o3)c2)ccc1OC(C)=O [Compound J1-4, (E)-2-[N-(2-methoxyethyl)-N-methylcarbamoyloxy]-4-{2-[3-(5-methylfur-2-yl)phenylethylsulfonyl]ethenyl}phenyl acetate]
- Expression (pp38/GAPDH) (midbrain pp38): 0.41 ± 0.08
- IC50 [1]: 8.54 ± 1.65 µM
- Expression (p-α-s/GAPDH) (midbrain p-α-s): 0.47 ± 0.11
- Expression (GCLC/GAPDH) (GCLC): 1.24 ± 0.10

SMILES: Cc1ccc(N2CCN(C(=O)Oc3ccc(/C=C/S(=O)(=O)CCCC(c4ccc(OC(=O)CN(C)C)cc4)N(C)C)cc3OC(=O)N(C)c3ccccc3)CC2)cc1 (stereo not drawn) [Compound P1-1, (E)-4-{2-[4-(dimethylamino)-4-(4-(N,N-dimethylglycyloxy)phenyl)butylsulfonyl]ethenyl}-2-(N-methyl-N-phenylcarbamoyloxy)phenyl-4-(p-methylphenyl)piperazine-1-carboxylate]
- Expression (pp38/GAPDH) (midbrain pp38): 0.50 ± 0.09
- IC50 [1]: 11.3 ± 1.48 µM
- Expression (p-α-s/GAPDH) (midbrain p-α-s): 0.48 ± 0.12
- Expression (GCLC/GAPDH) (GCLC): 0.98 ± 0.06

SMILES: CCOC(CS(=O)(=O)/C=C/c1ccc(OC(C)=O)c(OC(=O)Nc2ccc(NC)cc2)c1)C(OCC)c1ccc(OCc2ccccc2)c(O)c1 (stereo not drawn) [Compound H2-4, (E)-4-{2-[3-(4-benzyloxy-3-hydroxyphenyl)-2,3-diethoxypropyl]sulfonylethenyl}-2-[N-(4-methylaminophenyl)carbamoyloxy]phenyl acetate]
- Expression (pp38/GAPDH) (midbrain pp38): 0.43 ± 0.05
- IC50 [1, 2]: 11.3 ± 1.34 µM
- Expression (p-α-s/GAPDH) (midbrain p-α-s): 0.53 ± 0.13
- Expression (GCLC/GAPDH) (GCLC): 1.21 ± 0.08

SMILES: O=S(=O)(/C=C/c1ccc(O)c(O)c1)CCCc1ccccc1 [Compound 3C, (E)-4-{2-[(3-phenylpropyl)sulfonyl]ethenyl}benzene-1,2-diol, reference compound]
- Expression (pp38/GAPDH) (midbrain pp38): 0.85 ± 0.22
- IC50 [1, 2]: > 100 µM
- Expression (p-α-s/GAPDH) (midbrain p-α-s): 0.92 ± 0.13
- Expression (GCLC/GAPDH) (GCLC): 0.34 ± 0.05

SMILES: CCN(CC)C(=O)Oc1ccc(/C=C/S(=O)(=O)CCCc2ccccc2)cc1OC(=O)N(CC)CC [Compound C1-1, (E)-4-[2-(3-phenylpropylsulfonyl)ethenyl]-1,2-phenylenebis(diethylcarbamate)]
- Expression (pp38/GAPDH) (midbrain pp38): 0.63 ± 0.06
- IC50 [1, 2]: 14.7 ± 3.51 µM
- Expression (p-α-s/GAPDH) (midbrain p-α-s): 0.63 ± 0.06
- midbrain GCLC expression compared with the styryl sulfone prototype compounds (GCLC): significantly higher
- Expression (GCLC/GAPDH) (GCLC): 1.34 ± 0.08

SMILES: CNC(=O)Oc1ccc(/C=C/S(=O)(=O)CC(Cl)c2ccc(Cl)c([N+](=O)[O-])c2)cc1O (stereo not drawn) [Compound E2-2, (E)-4-{2-[2-chloro-2-(4-chloro-3-nitrophenyl)ethylsulfonyl]ethenyl}-2-hydroxyphenyl-N-methylcarbamate]
- Expression (pp38/GAPDH) (midbrain pp38): 0.43 ± 0.06
- IC50 [1]: 51.3 ± 3.94 µM
- Expression (p-α-s/GAPDH) (midbrain p-α-s): 0.45 ± 0.07
- Expression (GCLC/GAPDH) (GCLC): 1.48 ± 0.11

SMILES: COc1ccc(CC(=O)Oc2ccc(/C(C)=C/S(=O)(=O)/C=C/c3ccc(OC(=O)N(C)C)c(O[Si](C)(C)CCl)c3)cc2)cc1 [Compound P1-7, 4-{(E)-1-[(E)-3-(chloromethyldimethylsiloxy)-4-(N,N-dimethylcarbamoyloxy)styrylsulfonyl]prop-1-en-2-yl}phenyl-2-(4-methoxyphenyl) acetate]
- Expression (pp38/GAPDH) (midbrain pp38): 0.40 ± 0.04
- IC50 [1]: 21.4 ± 2.07 µM
- Expression (p-α-s/GAPDH) (midbrain p-α-s): 0.27 ± 0.08
- Expression (GCLC/GAPDH) (GCLC): 0.87 ± 0.08

SMILES: CC(C)N(c1ccc(CCS(=O)(=O)/C=C/c2ccc(OC(=O)N(C)c3ccc(I)cc3)c(OCCOCc3ccccc3)c2)cc1)C(C)C [Compound A1-3, (E)-2-(2-benzyloxyethoxy)-4-{2-[4-(N,N-diisopropylamino)phenylethylsulfonyl]ethenyl}phenyl-N-(4-iodophenyl)-N-methylcarbamate]
- Expression (pp38/GAPDH) (midbrain pp38): 0.27 ± 0.08
- IC50 [1]: 25.2 ± 3.34 µM
- Expression (p-α-s/GAPDH) (midbrain p-α-s): 0.56 ± 0.12
- Expression (GCLC/GAPDH) (GCLC): 0.84 ± 0.04

SMILES: CC(Br)C(Br)COc1cc(/C=C/S(=O)(=O)CCc2ccc(OCC(F)(F)F)cc2)ccc1OC(=O)Nc1ccsc1 (stereo not drawn) [Compound K1-3, (E)-2-(2,3-dibromobutoxy)-4-{2-[4-(2,2,2-trifluoroethoxy)phenylethylsulfonyl]ethenyl}phenyl-N-(thien-3-yl)carbamate]
- Expression (pp38/GAPDH) (midbrain pp38): 0.35 ± 0.06
- IC50 [1, 2]: 22.3 ± 3.17 µM
- Expression (p-α-s/GAPDH) (midbrain p-α-s): 0.34 ± 0.10
- Expression (GCLC/GAPDH) (GCLC): 1.13 ± 0.08

SMILES: C=CCOc1ccc(C/C=C/S(=O)(=O)/C=C/c2ccc(OC(C)=O)c(OC(=O)N(CC=C)CC=C)c2)cc1 [Compound K1-4, 4-{(E)-2-[(E)-3-(4-allyloxyphenyl)prop-1-en-1-yl]sulfonylethenyl}-2-(N,N-diallylcarbamoyloxy)phenyl acetate]
- Expression (pp38/GAPDH) (midbrain pp38): 0.44 ± 0.05
- IC50 [1, 2]: 16.9 ± 1.22 µM
- Expression (p-α-s/GAPDH) (midbrain p-α-s): 0.45 ± 0.12
- Expression (GCLC/GAPDH) (GCLC): 1.10 ± 0.07

SMILES: CC(=O)Oc1ccc(/C=C/S(=O)(=O)Cc2c(F)c(F)c(F)c(F)c2F)cc1OC(=O)NC(=O)c1ccc([N+](=O)[O-])c(C)c1 [Compound D5-4, (E)-2-[N-(3-methyl-4-nitrobenzoyl)carbamoyloxy]-4-{2-[(perfluorophenyl)mesyl]ethenyl}phenyl acetate]
- Expression (pp38/GAPDH) (midbrain pp38): 0.61 ± 0.07
- IC50 [1, 2]: 20.8 ± 3.12 µM
- Expression (p-α-s/GAPDH) (midbrain p-α-s): 0.64 ± 0.12
- Expression (GCLC/GAPDH) (GCLC): 0.97 ± 0.07

SMILES: O=C(/C=C/c1ccc(O)c(O)c1)OCCc1ccccc1 [Positive control group, caffeic acid phenethyl ester, reference compound]
- Expression (pp38/GAPDH) (midbrain pp38): 0.58 ± 0.12
- IC50 [1, 2]: > 100 µM
- IC50 ([1]; read-out: IC50 values (acetylcholinesterase)): > 100 µM
- Expression (p-α-s/GAPDH) (midbrain p-α-s): 0.54 ± 0.12
- Expression (GCLC/GAPDH) (GCLC): 0.77 ± 0.06
